Patent US11959083B2, “Immunosuppression-reverting oligonucleotides inhibiting the expression of CD39” (Secarna Pharmaceuticals GmbH & Co. KG, priority 2016, dated 2024)
l = locked nucleic acid (LNA); d = 2'-deoxy (DNA)

Assays:
hCD39 mRNA [1] = assay: hCD39 mRNA knockdown efficacy screen in HDLM-2 cells (single dose, gymnotic delivery, QuantiGene Singleplex); type: cell-based, human; conditions: 10 μM; for Mean hCD39 mRNA expression normalized to HPRT1 relative to untreated control = 1: first screening round; for Relative hCD39 mRNA expression (compared to non-treated cells): second screening round, normalized to HPRT1
In short: (§1)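 Antisense oligonucleotides given once at 10 μM without transfection reagent (gymnotic) to HDLM-2 or A-172 cells for 3 days. hCD39 mRNA measured by QuantiGene Singleplex, normalized to HPRT1 and expressed relative to untreated cells; triplicate means.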

hCD39 protein = assay: Concentration- and time-dependent hCD39 protein knockdown in HDLM-2 cells (flow cytometry); type: cell-based, human; conditions: for Inhibition [%] (Protein/mRNA): HDLM-2, CD39 protein; for inhibition of hCD39 protein: HDLM-2 cells, three, four and six days, different concentrations
Experimental: FIG. 8 depicts concentration- and time-dependent CD39 protein knockdown by A04040H (SEQ ID No. 3) and A04045H (SEQ ID No. 4). Analysis of CD39 protein expression by flow cytometry in HDML-2 cells is given after treatment with the indicated antisense oligonucleotides for 3, 4 and 6 days. As treatment control, cells were treated with neg1 for 3, 4 and 6 days at the indicated concentrations. Relative expression compared to untreated control cells (=1) is depicted.
HDLM-2 cells were therefore treated with different concentrations of the respective antisense oligonucleotide for three, four and six days, respectively. Protein expression was analyzed by flow cytometry using the CD39 antibody (clone A1) and 7-AAD to investigate viability. […] Table 13summarizes protein knockdown efficiency of the selected human CD39 antisense oligonucleotides A04040H (SEQ ID No. 3) and A04045H (SEQ ID No. 4) in HDLM-2 cells at different time points: […]

hCD39 mRNA [2] = assay: hCD39 mRNA knockdown efficacy screen in A-172 cells (single dose, gymnotic delivery, QuantiGene Singleplex); type: cell-based, human; conditions: 10 μM; for Mean hCD39 mRNA expression (relative to untreated cells set as 1): first screening round; for Mean hCD39 mRNA expression (relative to untreated cells set as 1) / Relative hCD39 mRNA expression (compared to non-treated cells): normalized to HPRT1; for Relative hCD39 mRNA expression (compared to non-treated cells): second screening round
In short: as §1

human CD8+ T cells = assay: Proliferation and absolute cell numbers of human CD8+ T cells in presence or absence of extracellular ATP; type: cell-based; conditions: 5 μM oligonucleotide 5 days or 20 μM ARL67156 24 h
Experimental: FIG. 12A-12C depict human CD8^+ T cells which were labelled with cell proliferation dye, activated with anti-CD3 and treated with 5 μM of the antisense oligonucleotide A04040H (black column) or the control oligonucleotide S6 (white column) for a total treatment time of 5 days. In the vehicle control (striped column), cells were activated with anti-CD3 only. Subsequently, 400 μM of ATP or vehicle were added to cells on day 3 and day 4 after start of oligonucleotide treatment. Furthermore, as additional control, the small molecular CD39-inhibitor ARL67156 trisodium salt was added at 20 μM to cells on day 4, for an incubation time of 24 h (checked column). On day 5 after start of oligonucleotide treatment, (FIG. 12A) CD39 protein expression, (FIG. 12B) proliferation and (FIG. 12C) absolute cell numbers of CD8^+ T cells were analyzed using Flow Cytometry. Depicted is the mean of triplicate wells+/−SD.
In cancer, ATP is released from tumor cells for example after cell death induced by chemotherapy or radiation therapy. Since the CD39-CD73 axis plays an important role for T cell function the effects of A04040H on T cell proliferation in the presence or absence of extracellular ATP were investigated. Human CD8^+ T cells were labelled with cell proliferation dye, activated with anti-CD3 and treated with 5 μM of the antisense oligonucleotide A04040H or the control oligonucleotide S6 for a total treatment time of 5 days. In the vehicle control, cells were activated with anti-CD3 only. Subsequently, 400 μM of ATP or vehicle were added to cells on day 3 and day 4 after start of oligonucleotide treatment. Furthermore, as additional control, the small molecular CD39-inhibitor ARL67156 trisodium salt was added at 20 μM to cells on day 4 for an incubation time of 24 h. On day 5 after start of oligonucleotide treatment, CD39 protein expression, proliferation, and absolute cell numbers of CD8^+ T cells were analyzed using Flow Cytometry.

[3] = absence of extracellular ATP, vs vehicle
[4] = supplementation with 400 μM of ATP

## +G*+T*+T*T*G*T*G*T*G*A*G*A*G*C*+T*+T (antisense GTTTGTGTGAGAGCTT; sugars from the 5' end l3 d11 l2, all phosphorothioate, methylation of C not given here) [A04040H]
hCD39 mRNA [1]; 3 days
  Mean hCD39 mRNA expression normalized to HPRT1 relative to untreated control = 1: 0.08
  Relative hCD39 mRNA expression (compared to non-treated cells): 0.06
hCD39 mRNA [1]; 3 days, third screening round
  Residual hCD39 mRNA expression relative to untreated cells (set as 1): 0.01
hCD39 protein; Day 3, 0.1 μM
  Inhibition [%] (Protein/mRNA): 46.73%
hCD39 protein; Day 3, 0.5 μM
  Inhibition [%] (Protein/mRNA): 54.75%
hCD39 protein; Day 3, 1 μM
  Inhibition [%] (Protein/mRNA): 60.56%
hCD39 protein; Day 3, 10 μM
  Inhibition [%] (Protein/mRNA): 61.36%
hCD39 protein; Day 4, 0.1 μM
  Inhibition [%] (Protein/mRNA): 70.73%
hCD39 protein; Day 4, 0.5 μM
  Inhibition [%] (Protein/mRNA): 78.25%
hCD39 protein; Day 4, 1 μM
  Inhibition [%] (Protein/mRNA): 76.96%
hCD39 protein; Day 4, 10 μM
  Inhibition [%] (Protein/mRNA): 79.11%
hCD39 protein; Day 6, 0.1 μM
  Inhibition [%] (Protein/mRNA): 87.37%
hCD39 protein; Day 6, 0.5 μM
  Inhibition [%] (Protein/mRNA): 89.36%
hCD39 protein; Day 6, 1 μM
  Inhibition [%] (Protein/mRNA): 84.12%
hCD39 protein; Day 6, 10 μM
  Inhibition [%] (Protein/mRNA): 88.84%
hCD39 protein
  inhibition of hCD39 protein: potent inhibition of hCD39 protein after all indicated time points
hCD39 mRNA [2]; 3 days
  Mean hCD39 mRNA expression (relative to untreated cells set as 1): 0.07
  Relative hCD39 mRNA expression (compared to non-treated cells): 0.04
hCD39 mRNA [2]; 3 days, third screening round
  Residual hCD39 mRNA expression relative to untreated cells (set as 1): 0.05
Human CD8+ T cells; [3]
  absolute cell numbers of CD8+ T cells: no differences
  proliferation of CD8+ T cells: no differences
Human CD8+ T cells; [4]
  absolute numbers of CD8+ T cells: not altered
  proliferation of CD8+ T cells: not reduced

## +C*+G*+T*T*T*A*G*G*C*T*A*T*G*T*A*+C*+T*+T (CGTTTAGGCTATGTACTT; chemistry not fully specified) [neg1, negative control antisense oligonucleotide not hybridizing with CD39, described in WO2014154843 A1, reference compound]
hCD39 mRNA [1]
  influence on the expression of hCD39: no negative influence on the expression of hCD39
hCD39 mRNA [1]; 3 days
  Mean hCD39 mRNA expression normalized to HPRT1 relative to untreated control = 1: 1.09
  Relative hCD39 mRNA expression (compared to non-treated cells): 1.09
hCD39 protein
  inhibition of hCD39 protein: no inhibitory effect
hCD39 mRNA [2]
  influence on the expression of hCD39: no negative influence on the expression of hCD39
hCD39 mRNA [2]; 3 days
  Mean hCD39 mRNA expression (relative to untreated cells set as 1): 1.36
  Relative hCD39 mRNA expression (compared to non-treated cells): 0.79
